According to US20080038402A1, “RUMINANT ANIMAL FEED FORMULATIONS AND METHODS OF FORMULATING SAME” (priority 2006, published 2008):
Marks after values point to notes of the source that are not given here.

How the values were obtained:
[1] = test system: rumen-fistulated cows; assay: Daily milk production and feed consumption; type: in vivo; settings: by treatment
Procedure: (§1) The use of the RAFA, were compared with an animal control. A four by four latin square design was used, employing four rumen-fistulated cows. Cows were fed a standard TMR (total mixed ration) for at least 7 days prior to the start of the experiment, and were assigned to one of the following four 21 day ration sequences: ABCD, BCDA, CDAB, and DABC, where A, B, C, and D are as follows: (A) control (standard TMR); (B) Monensin (control diet plus 200 mg/kg monensin); (C) Surfactant (control diet plus 316 mg/kg Surfactant); (D) Essential Oil (control diet plus 5 mg/kg Essential Oil).

[2] = test system: rumen fluid; assay: Redox, pH and dry matter disappearance of rumen fluid incubated 6 hours at 39° C.; type: cell-based, cows; settings: by treatment
Procedure: (§2) Rumen fluid was sampled via the fistula using the Geishawer probe according to standard methodology, with sampling done 2 hours pre-feeding, and again at 2, 4, and 6 hours post-feeding at day 19, 20 or 21 of a 21 day feeding period. Fluid was strained through 4 ply cheesecloth into duplicate containers treated with phosphoric acid (preservative). At the end of each feeding period, rumen fluid from the 2 hours pre-feeding sample was placed into a pre-warmed half litre vacuum flask and forwarded for in vitro studies, described below. The vacuum flask was filled and covered immediately after sampling.
(§3) Temperature, pH, redox on strained and unstrained rumen fluid were measured to assess viability and consistency. The rumen fluid was incubated for 6 hours at 39° C. with (1) control 0.13 g soybean meal (SBM) and 0.13 g TMR food sample; and (2) test 0.13 g Top Soy and 0.13 g TMR. Samples were analyzed for ammonia concentration and substrate disappearance.

[3] = test system: rumen fluid; assay: Rumen ammonia level after incubation, by treatment and soy process; type: cell-based, cows; settings: by treatment
Procedure: as §3
This trial further validates the adjustments applied to KB in the method when monensin sodium, Surfactant or Essential Oil are included in the diet. Adjustment factors for each RAFA were calculated as the ratio of additive ammonia production to that of the control and applied to the KB during formulation.

[4] = test system: rumen fluid; assay: Example 3a in vitro rumen fluid incubation (gas, DMD, VFA): monensin, soy oil, Ca salts of soy oil; type: cell-based
Description: One objective of this experiment was to compare these lipid sources (soy oil and calcium salts of soy oil) with each other and in the presence and absence of monensin sodium.
Production of iso-valeric acid and n-valeric acid was also used to estimate the level of protein (specifically branched chain amino acid) degradation in the rumen (Benchaar et al 1998), and results of VFA production can thus be used as an adjustment factor to express the benefit of such additives on protein degradability.
(§4) The measurement of rumen gas production over time is a well described technique (Minson 1998) and is subject to small variation between laboratories. In this laboratory, the substrate employed in all experiments was based on a dried TMR sample. Data from gas measurement observations using two replicates (true volume corrected by subtraction of corresponding negative control values at similar time point) was analyzed by ANOVA with time, treatment, and replicate as main effects in the model. The interaction of time by treatment by replicate was used as the error term. Dry matter digestibility was analyzed by ANOVA with treatment as the main effect in the model and treatment by replicate interaction as the error term. VFA parameters were analyzed by ANOVA with treatment as the main effect in the model and treatment by replicate interaction as the error term.
Statistical summaries are given in Tables 10-12 below for Mean Gas Production (0 to 6 hours incubation), DMD (Dry Matter Digestibility) %, VFA Tot. (Volatile Fatty Acids total moles), Acetic, Propionic, Butyric, Isobutyric, Isovaleric, and n-Valeric acids (molar percentages).
This trial further validates the adjustments applied to KB when monensin and soy oil are included in the diet either separately or in combination. Adjustment factors are calculated as the ratio of rumen active feed additive valerate production (i-valeric acid plus n-valeric acid) in the combination treatment to that of the control (TMR with CaSalts of SoyOil). Using this approach, KB can be adjusted by the following factors: • Monensin=6.36/7.20=0.88 • SoyOil=6.95/7.20=0.97 • Monensin+SoyOil=5.40/7.20=0.75

[5] = test system: rumen fluid; assay: Rumen gas production in vitro (rumen fluid added to buffer and food source, 0 to 6 hours); type: cell-based; settings: by treatment of donor cows
Procedure: as §2
Rumen fluid samples were also added to buffer and food source, and gas production was recorded from time 0 to 6 hours.

[6] = test system: rumen fluid; assay: Concentration and breakdown of VFA in vitro in incubated rumen fluid; type: cell-based, cows; settings: by treatment
Procedure: as §3
Concentration and breakdown of volatile fatty acids (VFA) in vitro were tabulated in Table 7, below, as results of statistical analysis across all timepoints.

[7] = test system: rumen fluid; assay: Example 3c in vitro rumen fluid incubation (gas, DMD, VFA): monensin, organic acid, yeast culture, fermentation solubles; type: cell-based
Procedure: as §4, with “Data from gas measurement observations using two replicates (true volume corrected by subtraction of corresponding negative control values at similar time point) was analyzed by ANOVA with time, treatment, and replicate as main effects in the model.” left out
The protocol used in Example 3a was also used in 3c to investigate the additive effects of other RAFA
Statistical summaries were tabulated in Tables 18-20 below for Mean Gas Production (0 to 6 hours incubation), DMD (Dry Matter Digestibility) %, VFA Tot. (Volatile Fatty Acids total moles), Acetic, Propionic, I-Butyric, n-Butyric, Isovaleric, and n-Valeric acids (molar percentages).

[8] = test system: rumen fluid; assay: Rumen fluid pH and volatile fatty acids in rumen-fistulated cows (4x4 latin square); type: in vivo
Procedure: as §1, §2
Rumen fluid pH and volatile fatty acids (VEA) were measured.

monensin sodium
DMI (dry matter intake) [1]: 24.7^ab kg/day | Milk [1]: 43.7 kg/day | Milk/kg DMI [1]: 1.77 | pH at T0 [2]: 6.31 | DMD % ([2]; 6 hours at 39° C.): 40.43% | Redox (seconds) at T0 ([2]; cell viability): 30 s | Baseline-corrected Ammonia post incubation [3]: 27.49^a mg/L | Baseline-corrected percent Ammonia reduction with Top Soy relative to SBM [3]: 45.26% | Acetic ([4]; VFA): 60.97^ab molar % | Prop ([4]; VFA): 20.82^b molar % | i-But ([4]; VFA): 1.06^c molar % | i-Val ([4]; VFA): 4.65^a molar % | n-But ([4]; VFA): 10.79 molar % | n-Val ([4]; VFA): 1.71 molar % | Mean Gas ml 0–6 hr ([4]; calculated as increase over Control, 6.6 mg/L monensin, 6 g/L lipid): 5.31^e ml | DMD % ([4]; dry matter disappearance): 43.48^a % | VFA, moles ([4]; total VFA production): 52.51^a moles | GAS [5]: 10.39^c ml | Acetic [6]: 58.62^a molar percentage | Prop [6]: 25.51^a molar percentage | VFA total [6]: 75.03^c mmol/L | i-But [6]: 1.18 molar percentage | i-Val [6]: 1.44^b molar percentage | n-But [6]: 12.09^bc molar percentage | n-Val [6]: 1.16^c molar percentage | DMD % ([7]; Dry Matter Digestibility): 19.4^ad % | Acetic ([7]; VFA): 60.5 mmol/100 mmol | Prop ([7]; VFA): 22.4^ab mmol/100 mmol | i-But ([7]; VFA): 4.1^bc mmol/100 mmol | i-Val ([7]; VFA): 1.5^abd mmol/100 mmol | n-But ([7]; VFA): 10.2 mmol/100 mmol | n-Val ([7]; VFA): 1.2^abc mmol/100 mmol | Mean Gas ml 0–6 hr ([7]; calculated as increase over negative Control): −0.9^b ml | VFA total ([7]; total yields): 41.6^b mmol/L | Rumen pH ([8]; by treatment across all time points, 21 day ration, monensin 200 mg/kg, Surfactant 316 mg/kg, Essential Oil 5 mg/kg diet): 6.07 | Acetic (acetic acid) ([8]; rumen fluid by treatment): 57.90^b molar percentage | Prop (propionic acid) ([8]; rumen fluid by treatment): 24.91^c molar percentage | VFA total ([8]; rumen fluid by treatment): 102.64^b mmol/L | i-But (i-butyric acid) ([8]; rumen fluid by treatment): 0.95^b molar percentage | i-Val (i-valeric acid) ([8]; rumen fluid by treatment): 1.08^c molar percentage | n-But (n-butyric acid) ([8]; rumen fluid by treatment): 12.33 molar percentage | n-Val (n-valeric acid) ([8]; rumen fluid by treatment): 2.82^b molar percentage | Molar yields of propionate ([8]; rumen fluid by treatment, control 24.81): 25.56
